“Also recorded” adds a separate entry of the source. Like-named read-outs stand apart in the source and are kept apart here.
Key:
MRSA = experiment: Scanning electron microscopy of treated bacteria; type: cell-based, Staphylococcus aureus; details: 0.01 mg/mL for 30 minutes
Experimental: MRSA was grown overnight in 10 mL of LB broth, sub-cultured (5 mL of overnight culture added to 20 mL LB) and grown for 3 h. MRSA culture (300 μL) were removed, placed into a 1.5 mL tube, and treated with DMSO or EIPE-1 (0.01 mg/mL) for 30 minutes. Each sample was placed on glass coverslips (treated with poly-L-lysine) in a 24 well plate and fixed with 2% glutaraldehyde (in 0.1 M sodium cacodylate buffer) for 2 h at room temperature. After fixation, samples were washed three times with 0.1 M sodium cacodylate buffer. Samples were then fixed with 1% osmium tetroxide in water for 1 h at room temperature and were then washed three times with 0.1 M sodium cacodylate buffer. The samples were then dehydrated with an ethanol series (once with 50%, 70%, 90%, 95% and thrice with 100% ethanol). Samples were dried using hexamethyldisilazane (HAMIDS) and then were mounted on stubs. Finally, samples were coated with gold and palladium using an automated sputter coater. Micrographs were acquired using Quanta 600 Scanning electron microscope.
To visualize potential membrane changes, DMSO and EIPE-1 treated MRSA were prepped and visualized by scanning electron microscopy (FIG. 4B). […] FIG. 4(C) contains bar charts that show the percentage of live and dead MRSA from 20 microscopy fields of view.

[1] = tested on: Pseudomonas aeruginosa (PA); experiment: Comparison with Methicillin and Gentamicin, recoverable CFU; type: cell-based; details: compared with Methicillin and Gentamicin treatment
Experimental: To determine CFUs of PA and MRSA after exposure to DMSO, DBI, EIPE-1, Gentamicin or Methicillin, 10-fold serial dilutions were prepared in 96-well micro plates using multichannel pipettes. For each dilution, 25 ptL of each sample was pipetted onto a plate containing agar medium and incubated for 18 h at 37° C. The number of colonies for each dilution were counted and used to back calculate the number of bacteria per mL (CFU/mL) in each original bacterial culture.
EIPE-1 antimicrobial activity against MRSA and PA was compared to that of Methicillin and Gentamicin treatment. Bacterial cultures were grown, normalized and then exposed to either DBI, DMSO (solvent control), EIPE-1, Methicillin or Gentamicin (FIG. 3). […] This is highly significant and novel as methicillin resistance is a huge problem in hospitals and patient treatment worldwide. […] Gram-negative bacteria like PA have an outer membrane covered with lipopolysaccharides that protects the bacteria from antibiotics, dyes, and detergents from penetrating the bacterial cell.

P. moltocida P-1581 = experiment: MIC and MBC values (Table 2); type: cell-based; details: Pasteurella, P1581
S. aureus ATCC 25923 = experiment: MIC and MBC values (Table 2); type: cell-based, Staphylococcus aureus
B. subtilts ATCC 6633 = experiment: MIC and MBC values (Table 2); type: cell-based; details: Bacillus subtilis, ATCC6633
S. epidermidis SK01 = experiment: MIC and MBC values (Table 2); type: cell-based; details: Staphylococcus epidermidis
[2] = tested on: Cryptococcus neoformans serotype A strain H99; experiment: Antifungal MIC assay; type: cell-based
Experimental: (§1) Cryptococcus neoformans serotype A strain H99 as well as Candida ablicans strain SC5314, were readily available in the lab. The stock of cells is stored at −80° C. to preserve the fungi and prevent contamination. The cells were grown and maintained in yeast extract-peptone-dextrose (YPD) media (Difco). Cryptococcus or Candida cells were incubated in YPD broth for 18 hrs at 30° C., in a shaking incubator. After the incubation period, they were washed three times in sterile phosphate-buffered saline (PBS) to remove all remaining residue of YPD. The cells were then quantified by using trypan blue dye exclusion in a hemocytometer.
(§2) C. neoformans were suspended in RPMI with MOPS, 0.165M, at a concentration of 0.5×10^3 cells/mL. RPMI MOPS media was added to a 96-well plate in a volume of 100 μL to every well, with the exception of column 1. An additional 80 μL of RPMI MOPS was added to column 4 for a total of 180 μL/per well. Amphotericin B or EIPE-1 was added to columns […] with a volume of 20 μL at a concentration of 1 mg/mL. Contents were mixed, then serially diluted 100 μL down the plate until column 11. The last 100 μL was discarded, leaving column 12 blank. C. neoformans was added at a volume of 100 μL per well from column 4 to column 12, so the final volume of the wells was 200 μL. Plates were incubated at 35° C. in a humid incubator for 48 hrs.

[3] = tested on: Candida albicans strain SC5314; experiment: Antifungal MIC assay; type: cell-based; details: for MIC: Candida albicans
Experimental: as §1
as §2, with “C. albicans were suspended” for “C. neoformans were suspended”, “cells/mL. RPMI Mops media was” for “cells/mL. RPMI MOPS media was”, “μL/per well. EIPE-1 was” for “μL/per well. Amphotericin B or EIPE-1 was”, “blank. C. albicans was added” for “blank. C. neoformans was added”

COC(=O)c1cc2c(C#Cc3ccc(OCCC[N+](C)(C)C)cc3)c(OC)c(OC)c(C#Cc3ccc(OCCC[N+](C)(C)C)cc3)c2n1C [EIPE-1, 3,3′-((((5,6-dimethoxy-2-(methoxycarbonyl)-1-methyl-1H-indole-4,7-diyl)bis(ethyne-2,1-diyl))bis(4,1-phenylene))bis(oxy))bis(N,N,N-trimethylpropan-1-aminium) iodide]
cell membrane appearance by SEM (MRSA): cell membrane damage; also recorded: damaged cell membranes
activity against PA [1]: does not appear to have activity; also recorded: did not display any activity
MBC (P. moltocida P-1581): 64 µg/mL
MIC (P. moltocida P-1581): 64 µg/mL
MBC (S. aureus ATCC 25923; Staphylococcus aureus, ATCC25923, repeated determinations): 2 µg/mL
MIC (S. aureus ATCC 25923; Staphylococcus aureus, ATCC25923, repeated determinations, read-out: MIC): 2 µg/mL
MIC (S. aureus ATCC 25923; repeated determinations): 1.000 µg/mL
MBC (B. subtilts ATCC 6633): 1 µg/mL
MIC (B. subtilts ATCC 6633): 1 µg/mL
MBC (S. epidermidis SK01): 2 µg/mL
MIC (S. epidermidis SK01): 1 µg/mL
MIC for C. neoformans [2]: 3.1 µg/mL
Minimum inhibitory concentration (MIC) for the isolate of C. neoformans ([2]; 35° C., 48 hrs, RPMI with MOPS): 1.749 ± 0.1080 µg·mL
MIC ([2]; Cryptococcus neoformans, read-out: MIC for C. neoformans): 1.75 µg/mL
MIC, C. neoformans ([2]; across seven MIC assays): 1.67 µg/mL
Minimum inhibitory concentration (MIC) for the isolate of C. albicans ([3]; 35° C., 48 hrs, RPMI with MOPS): 2.705 ± 0.3962 µg/mL
MIC ([3]; SC5314, 48 h, 35° C., 48 hrs, RPMI with MOPS, read-out: Minimum inhibitory concentration (MIC) for the isolate of C. albicans): 2.71 µg/mL
MIC ([3]; SC5314, across seven experiments, read-out: Candida MIC): 2.46 µg/mL

From US11730717B1, “Melanin-inspired antimicrobial” (The Board of Regents for the Oklahoma Agricultural and …, priority 2020, dated 2023)
